Assay results: publication PMC2685281 (Journal of organometallic chemistry, 2009)
Like-named read-outs stand apart in the source and are kept apart here.

Legend:
[1] = target: T1, lipoic acid groups of the pyruvate dehydrogenase complex (Sus scrofa, UniProt A0A4X1TBD2); assay type: binding, porcine
T1 sequence (A0A4X1TBD2 1-647): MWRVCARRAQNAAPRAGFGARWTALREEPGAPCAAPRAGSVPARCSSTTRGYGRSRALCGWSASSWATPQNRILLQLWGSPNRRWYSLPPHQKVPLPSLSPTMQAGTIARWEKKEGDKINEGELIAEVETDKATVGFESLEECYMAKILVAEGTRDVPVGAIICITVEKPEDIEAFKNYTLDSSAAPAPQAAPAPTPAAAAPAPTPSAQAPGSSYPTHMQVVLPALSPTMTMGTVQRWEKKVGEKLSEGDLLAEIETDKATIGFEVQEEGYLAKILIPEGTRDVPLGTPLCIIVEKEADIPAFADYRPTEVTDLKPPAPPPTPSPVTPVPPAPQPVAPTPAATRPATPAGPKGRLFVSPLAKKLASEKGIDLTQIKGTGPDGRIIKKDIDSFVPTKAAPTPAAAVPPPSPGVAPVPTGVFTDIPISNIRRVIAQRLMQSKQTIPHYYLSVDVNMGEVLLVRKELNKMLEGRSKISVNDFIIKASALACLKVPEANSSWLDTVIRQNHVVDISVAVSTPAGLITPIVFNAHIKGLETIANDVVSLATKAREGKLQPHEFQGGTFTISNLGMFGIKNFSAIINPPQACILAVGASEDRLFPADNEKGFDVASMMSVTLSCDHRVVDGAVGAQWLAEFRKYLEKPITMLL

[2] = target: T2, lipoic acid groups of the α-ketoglutarate dehydrogenase complex (Sus scrofa, UniProt Q9N0F1); assay type: binding, porcine
T2 sequence (Q9N0F1 69-455): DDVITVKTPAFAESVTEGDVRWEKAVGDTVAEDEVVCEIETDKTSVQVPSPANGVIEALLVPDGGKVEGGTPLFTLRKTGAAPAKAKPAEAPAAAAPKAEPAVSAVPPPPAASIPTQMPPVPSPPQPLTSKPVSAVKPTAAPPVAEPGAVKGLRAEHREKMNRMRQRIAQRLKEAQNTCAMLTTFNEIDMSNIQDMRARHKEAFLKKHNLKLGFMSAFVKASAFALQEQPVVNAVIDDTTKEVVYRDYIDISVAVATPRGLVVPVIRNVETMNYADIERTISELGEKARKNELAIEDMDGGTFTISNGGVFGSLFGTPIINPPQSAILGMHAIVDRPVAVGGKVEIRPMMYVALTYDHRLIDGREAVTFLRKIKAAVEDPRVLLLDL

[3] = target: pyruvate dehydrogenase (PDH) complex; assay type: biochemical, porcine
[4] = target: α-ketoglutarate dehydrogenase (KGDH) complex (Sus scrofa, UniProt Q9N0F1); assay type: biochemical, porcine
PDH complex = conditions: read-out: IC50, PDH inhibition; cited from earlier work
reduced thiol groups = conditions: read-out: dissociation constants (Kd) for reduced thiol groups; cited from earlier work

Row | Substance | Loss of recognition of lipoic acid groups by anti-lipoic acid antibody, PDH [1] | Loss of recognition of lipoic acid groups by anti-lipoic acid antibody, KGDH [2] | 50% enzyme inhibition (IC50), PDH, half hour incubation [3] | 50% enzyme inhibition (IC50), PDH, one hour incubation [3] | IC50 ([3]; read-out: 50% enzyme inhibition (IC50), PDH, half hour incubation) | IC50 ([3]; read-out: 50% enzyme inhibition (IC50), PDH, one hour incubation) | 50% enzyme inhibition (IC50), KGDH, half hour incubation [4] | 50% enzyme inhibition (IC50), KGDH, one hour incubation [4] | IC50 ([4]; read-out: 50% enzyme inhibition (IC50), KGDH, half hour incubation) | IC50 ([4]; read-out: 50% enzyme inhibition (IC50), KGDH, one hour incubation) | IC50 (PDH complex) | Kd (reduced thiol groups)
1 | Dimethylarsonous iodide [DMA ^3+] | strong interference | strong interference | – | – | – | – | – | – | – | – | – | –
2 | Sodium arsenite [As ^3+] | – | – | 704 ppb | 267 ppb | 9.39 µM | 3.56 µM | 733 ppb | 488 ppb | 9.78 µM | 6.51 µM | 116 µM | 5 to 124 µM
